Molecules are shown by their SMILES. Starred links: 1 amine or outer side, 2 acyl side, 3 side chain; linkers in the order of their positions; H or OH if unused. Positions of bridges follow the written chain, without caps; N, C: chain ends. Non-standard residues stand in square brackets, D forms with d. Residues, ends and D or L forms follow the SMILES beside them. Phe(4-F) = N[C@@H](Cc1ccc(F)cc1)C(=O)O; X1 = CC(C)CCC[C@H](N[*:1])C(=O)[*:2]; R8 = C=CCCCCCC[C@@](C)(N)C(=O)O; hLeu = CC(C)CC[C@H](N)C(=O)O; S5 = C=CCCC[C@](C)(N)C(=O)O; Ac6c = NC1(C(=O)O)CCCCC1; Ac5c = NC1(C(=O)O)CCCC1; Aib = CC(C)(N)C(=O)O

The experiment deals with Bcl-xL (Homo sapiens, UniProt Q07817). Description: Ki determination for Bcl-xL (BCL-2 family binding spectrum). Particulars: read-out: Ki BCL-XL. An excerpt: To assess the binding and affinity of compounds that antagonize the interaction between a peptide and an acceptor protein, a fluorescence polarization assay (FPA) utilizing a fluoresceinated peptidomimetic macrocycle derived from a peptidomimetic precursor sequence is used, for example. The FPA technique measures the molecular orientation and mobility using polarized light and fluorescent tracer. […] A compound that antagonizes the interaction between the fluoresceinated peptidomimetic macrocycle and an acceptor protein will be detected in a competitive binding FPA experiment.
Chain of Bcl-xL (Q07817 whole entry, species assumed): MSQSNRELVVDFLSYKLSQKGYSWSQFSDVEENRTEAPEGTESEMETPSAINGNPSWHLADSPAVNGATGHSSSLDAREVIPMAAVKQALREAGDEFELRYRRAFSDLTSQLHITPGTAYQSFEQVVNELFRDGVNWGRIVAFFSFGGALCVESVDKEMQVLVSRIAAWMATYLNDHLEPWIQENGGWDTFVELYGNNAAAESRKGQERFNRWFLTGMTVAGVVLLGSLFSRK
For example, putative antagonist compounds (1 nM to 1 mM) and a fluoresceinated peptidomimetic macrocycle (25 nM) are incubated with the acceptor protein (50 nM) in binding buffer (140 mM NaCl, 50 mM Tris-HCL, pH 7.4) for 30 minutes at room temperature. Antagonist binding activity is measured, for example, by fluorescence polarization on a luminescence spectrophotometer (e.g. Perkin-Elmer LS50B). Kd values may be determined by nonlinear regression analysis using, for example, Graphpad Prism software (GraphPad Software, Inc., San Diego, Calif.).
Broadly, the Ki is a dissociation constant, usually derived from enzyme kinetics or from competition with a known ligand. As to `CC[C@H](C)[C@H](NC(C)=O)C(=O)N[C@@H](Cc1c[nH]c2ccccc12)C(=O)N[C@H](C(=O)N[C@@H](C)C(=O)N[C@@H](CCC(N)=O)C(=O)N[C@@H](C)C(=O)N[C@@H](CC(C)C)C(=O)N[C@@H](CCCNC(=N)N)C(=O)N[C@]1(C)CCCCCCC=CCCC[C@@](C)(C(=O)N[C@@H](Cc2ccc(O)cc2)C(=O)N[C@@H](Cc2ccc(O)cc2)C(=O)N[C@@H](C)C(N)=O)NC(=O)[C@H](CC(N)=O)NC(=O)[C@H](Cc2ccccc2)NC(=O)[C@H](CCC(N)=O)NC(=O)[C@H](CC(=O)O)NC(=O)CNC(=O)[C@H](Cc2ccccc2)NC1=O)[C@@H](C)CC` [compound 1670] (Ac-IWIAQALR[R8]FGDQFN[S5]YYA-NH2; staple 9-16), the Ki is 25.6 nM.
On to `CC[C@H](C)[C@H](NC(C)=O)C(=O)N[C@@H](Cc1c[nH]c2ccccc12)C(=O)N[C@@H](Cc1ccccc1)C(=O)N[C@@H](C)C(=O)N[C@@H](CCC(N)=O)C(=O)N[C@@H](C)C(=O)N[C@@H](CC(C)C)C(=O)N[C@@H](CCCNC(=N)N)C(=O)N[C@]1(C)CCCCCCC=CCCC[C@@](C)(C(=O)N[C@@H](Cc2ccc(O)cc2)C(=O)N[C@@H](Cc2ccc(O)cc2)C(=O)N[C@@H](C)C(N)=O)NC(=O)[C@H](CC(N)=O)NC(=O)[C@H](Cc2ccccc2)NC(=O)[C@H](CCC(N)=O)NC(=O)[C@H](CC(=O)O)NC(=O)CNC(=O)[C@H]([C@@H](C)CC)NC1=O` [compound 1672] (Ac-IWFAQALR[R8]IGDQFN[S5]YYA-NH2; staple 9-16), for which the Ki came out at 25.9 nM.
Under `CC[C@H](C)[C@H](NC(C)=O)C(=O)N[C@@H](Cc1c[nH]c2ccccc12)C(=O)N[C@H](C(=O)N[C@@H](C)C(=O)N[C@@H](CCC(N)=O)C(=O)N[C@@H](C)C(=O)N[C@@H](CC(C)C)C(=O)N[C@@H](CCCNC(=N)N)C(=O)N[C@]1(C)CCCCCCC=CCCC[C@@](C)(C(=O)N[C@@H](Cc2ccc(O)cc2)C(=O)N[C@@H](Cc2ccc(O)cc2)C(=O)N[C@@H](C)C(N)=O)NC(=O)[C@H](CC(N)=O)NC(=O)[C@H](Cc2ccccc2)NC(=O)[C@H](C)NC(=O)[C@H](CC(=O)O)NC(=O)CNC(=O)[C@H](CCCC(C)C)NC1=O)[C@@H](C)CC` [compound 1702] (Ac-IWIAQALR[R8][X1]GDAFN[S5]YYA-NH2; staple 9-16) stands 4 nM; under `CC[C@H](C)[C@H](NC(C)=O)C(=O)N[C@@H](Cc1c[nH]c2ccccc12)C(=O)NC1(C(=O)N[C@@H](C)C(=O)N[C@@H](CCC(N)=O)C(=O)N[C@@H](C)C(=O)N[C@@H](CC(C)C)C(=O)N[C@@H](CCCNC(=N)N)C(=O)N[C@]2(C)CCCCCCC=CCCC[C@@](C)(C(=O)N[C@@H](Cc3ccc(O)cc3)C(=O)N[C@@H](Cc3ccc(O)cc3)C(=O)N[C@@H](C)C(N)=O)NC(=O)[C@H](CC(N)=O)NC(=O)[C@H](Cc3ccccc3)NC(=O)[C@H](C)NC(=O)[C@H](CC(=O)O)NC(=O)CNC(=O)[C@H]([C@@H](C)CC)NC2=O)CCCCC1` [compound 1714] (Ac-IW[Ac6c]AQALR[R8]IGDAFN[S5]YYA-NH2; staple 9-16), 7.7 nM; under `CC[C@H](C)[C@H](NC(C)=O)C(=O)N[C@@H](Cc1c[nH]c2ccccc12)C(=O)NC1(C(=O)N[C@@H](C)C(=O)N[C@@H](CCC(N)=O)C(=O)N[C@@H](C)C(=O)N[C@@H](CC(C)C)C(=O)N[C@@H](CCCNC(=N)N)C(=O)N[C@]2(C)CCCCCCC=CCCC[C@@](C)(C(=O)N[C@@H](Cc3ccc(O)cc3)C(=O)N[C@@H](Cc3ccc(O)cc3)C(=O)N[C@@H](C)C(N)=O)NC(=O)[C@H](CC(N)=O)NC(=O)[C@H](Cc3ccccc3)NC(=O)[C@H](C)NC(=O)[C@H](CC(=O)O)NC(=O)CNC(=O)[C@H]([C@@H](C)CC)NC2=O)CCCC1` [compound 1715] (Ac-IW[Ac5c]AQALR[R8]IGDAFN[S5]YYA-NH2; staple 9-16), 8.4 nM.
With `CC[C@H](C)[C@H](NC(C)=O)C(=O)N[C@@H](CC(=O)O)C(=O)N[C@H](C(=O)N[C@@H](C)C(=O)N[C@@H](C)C(=O)N[C@@H](C)C(=O)N[C@@H](CC(C)C)C(=O)N[C@@H](CCCNC(=N)N)C(=O)N[C@]1(C)CCCCCCC=CCCC[C@@](C)(C(=O)N[C@@H](Cc2ccc(O)cc2)C(=O)N[C@@H](Cc2ccc(O)cc2)C(=O)N[C@@H](C)C(N)=O)NC(=O)[C@H](CC(N)=O)NC(=O)[C@H](Cc2ccccc2)NC(=O)[C@H](C)NC(=O)[C@H](CC(=O)O)NC(=O)CNC(=O)[C@H]([C@@H](C)CC)NC1=O)[C@@H](C)CC` [compound 1725] (Ac-IDIAAALR[R8]IGDAFN[S5]YYA-NH2; staple 9-16), the Ki turned out to be 36.3 nM.
Consider `CC[C@H](C)[C@H](NC(C)=O)C(=O)N[C@@H](Cc1c[nH]c2ccccc12)C(=O)N[C@H](C(=O)N[C@@H](C)C(=O)N[C@@H](C)C(=O)N[C@@H](C)C(=O)N[C@@H](CC(C)C)C(=O)N[C@@H](CCCNC(=N)N)C(=O)N[C@]1(C)CCCCCCC=CCCC[C@@](C)(C(=O)N[C@@H](Cc2ccc(O)cc2)C(=O)N[C@@H](Cc2ccc(O)cc2)C(=O)N[C@@H](C)C(N)=O)NC(=O)[C@H](CC(=O)O)NC(=O)[C@H](Cc2ccccc2)NC(=O)[C@H](C)NC(=O)[C@H](CC(=O)O)NC(=O)CNC(=O)[C@H]([C@@H](C)CC)NC1=O)[C@@H](C)CC` [compound 1748] (Ac-IWIAAALR[R8]IGDAFD[S5]YYA-NH2; staple 9-16), for which the Ki stood at 25.9 nM.
Under `CC[C@H](C)[C@H](NC(C)=O)C(=O)N[C@@H](Cc1c[nH]c2ccccc12)C(=O)N[C@H](C(=O)N[C@@H](C)C(=O)N[C@@H](CCC(N)=O)C(=O)N[C@@H](C)C(=O)N[C@@H](CC(C)C)C(=O)N[C@@H](CCCNC(=N)N)C(=O)N[C@]1(C)CCCCCCC=CCCC[C@@](C)(C(=O)N[C@@H](Cc2ccc(O)cc2)C(=O)N[C@@H](CC(C)C)C(=O)N[C@@H](C)C(N)=O)NC(=O)[C@H](CC(N)=O)NC(=O)[C@H](Cc2ccccc2)NC(=O)[C@H](C)NC(=O)[C@H](CC(=O)O)NC(=O)CNC(=O)[C@H]([C@@H](C)CC)NC1=O)[C@@H](C)CC` [compound 1755] (Ac-IWIAQALR[R8]IGDAFN[S5]YLA-NH2; staple 9-16) stands 9 nM; under `CC[C@H](C)[C@H](NC(C)=O)C(=O)N[C@@H](Cc1c[nH]c2ccccc12)C(=O)N[C@H](C(=O)N[C@@H](C)C(=O)N[C@@H](CCC(N)=O)C(=O)N[C@@H](C)C(=O)N[C@@H](CC(C)C)C(=O)N[C@@H](CCCNC(=N)N)C(=O)N[C@]1(C)CCCCCCC=CCCC[C@@](C)(C(=O)N[C@@H](Cc2ccc(O)cc2)C(=O)N[C@@H](Cc2ccc(O)cc2)C(=O)NC(C)(C)C(N)=O)NC(=O)[C@H](CC(N)=O)NC(=O)[C@H](Cc2ccccc2)NC(=O)[C@H](C)NC(=O)[C@H](CC(=O)O)NC(=O)CNC(=O)[C@H]([C@@H](C)CC)NC1=O)[C@@H](C)CC` [compound 1770] (Ac-IWIAQALR[R8]IGDAFN[S5]YY[Aib]-NH2; staple 9-16), over 1000 nM.
For `CC[C@H](C)[C@H](NC(=O)[C@H](Cc1c[nH]c2ccccc12)NC(=O)[C@H](C)NC(C)=O)C(=O)N[C@@H](C)C(=O)N[C@@H](C)C(=O)N[C@@H](C)C(=O)N[C@@H](CC(C)C)C(=O)N[C@@H](CCCNC(=N)N)C(=O)N[C@]1(C)CCCCCCC=CCCC[C@@](C)(C(=O)N[C@@H](C)C(=O)N[C@@H](Cc2ccc(F)cc2)C(=O)N[C@@H](C)C(N)=O)NC(=O)[C@H](CC(N)=O)NC(=O)[C@H](Cc2ccccc2)NC(=O)[C@H](C)NC(=O)[C@H](CC(=O)O)NC(=O)CNC(=O)[C@H](CCC(C)C)NC1=O` [compound 1780] (Ac-AWIAAALR[R8][hLeu]GDAFN[S5]A[Phe(4-F)]A-NH2; staple 9-16), the Ki was 9 nM.

Values taken from patent US20190185518A9, “WARHEAD-CONTAINING PEPTIDOMIMETIC MACROCYCLES AS MODULATORS OF BFL-1” (AILERON Therapeutics, Inc., priority 2017, published 2019).
